Reference: publication PMC9200625, “Identification and Functional Characterization of Peptides With Antimicrobial Activity From the Syphilis Spirochete, Treponema pallidum” (Frontiers in Microbiology, 2022)
Like-named read-outs stand apart in the source and are kept apart here.

How the values were obtained:
[1] = test system: S. pyogenes Unknown strain; Clinical Isolate; type: cell-based, Streptococcus pyogenes; conditions: range over 3–9 independent experiments
Protocol: (§1) Bacterial strains used in this study were: E. coli ATCC 9723H, Pseudomonas aeruginosa ATCC 10148, Staphylococcus aureus ATCC 6538P (penicillin resistant), Streptococcus pyogenes (hospital isolate, strain unknown), Mycobacterium smegmatis MC^2155, N. gonorrhoeae ATCC 700825 (streptomycin resistant), and Salmonella enterica subsp. enterica serovar Typhimurium SL1344 (streptomycin resistant). E. coli, P. aeruginosa, S. aureus, M. smegmatis, and S. enterica were cultured aerobically at 37°C in Mueller Hinton broth (MHB) (Sigma-Aldrich, MO, United States) and on nonselective Mueller Hinton agar (MHA) plates. S. pyogenes was cultured in 5% carbon dioxide at 37°C in MHB supplemented with 5% lysed horse blood (Quad Five, MT, United States) (MHB + 5% HB) and on nonselective MHA plates supplemented with 5% defibrinated sheep blood (Quad Five, MT, United States) (MHA + 5% SB). N. gonorrhoeae was cultured in 5% carbon dioxide at 37°C in gonococcal (GC) chocolate broth medium and on nonselective GC agar plates [GC medium base (BD Difco, MD, United States) supplemented with 1% BBL™ hemoglobin (BD Biosciences, MD, United States) and 1% IsoVitaleX (BD Biosciences, MD, United States)]. Prior to antimicrobial susceptibility assays (as described below), N. gonorrhoeae cultures were subcultured on nonselective GC agar plates (as described above), to ensure bacterial viability. All bacterial stocks were stored in 20% glycerol at –80°C.
(§2) Bacterial suspensions were prepared by transferring bacterial colonies into MHB and resuspending using a vortex mixer to ensure complete suspension of any bacterial aggregates. Turbidity of the colony suspensions was adjusted spectrophotometrically to the required optical densities to achieve a turbidity equivalent to that of a 0.5 McFarland standard (1–2 × 10^8 CFU/mL) followed by dilution in MHB to achieve the standardized microbial inoculum of approximately 5 × 10^5 CFU/mL. Total viable counts (TVC) were routinely performed on all inoculum suspensions to ensure correct bacterial cell densities. The standardized bacterial suspensions were then incubated with two-fold serial dilutions of each peptide (dissolved in 11 μL of ultrapure sterile water; final peptide concentration range of 256 μg/mL–0.5 μg/mL) in Greiner polypropylene round bottom 96-well microtiter plates (Sigma-Aldrich, MO, United States). Each peptide was tested once per experiment, with a range of 3–9 independent experiments performed per peptide. Negative growth/sterility control wells contained bacterial growth media (100 μL) and the peptide solvent (11 μL of ultrapure sterile water). Positive growth control wells contained the standardized number of bacterial cells (100 μL of ∼ 5.0 × 10^5 CFU/mL) and peptide solvent (11 μL of ultrapure sterile water). Plates were incubated at 37°C for 16–24 h and MICs were determined using the unaided eye to identify the lowest concentration of AMP that inhibited visible growth of the tested bacterial species. If the sterility control well was turbid, the test was not considered valid. MBCs were determined by plating the entire content of the wells containing the peptide/bacteria mixture representing the MIC and the entire contents of the preceding wells containing two-fold and four-fold more concentrated AMP dilutions onto nonselective agar plates.

[2] = test system: N. gonorrhoeae ATCC 700825; type: cell-based, Neisseria gonorrhoeae; conditions: 3-h incubation 37°C 5% CO2, TVCs versus positive growth control, all of three to six independent experiments
Protocol: as §1
The potential antimicrobial activity of the T. pallidum peptides against N. gonorrhoeae was determined using a modified agar dilution method. In this assay, N. gonorrhoeae colonies from GC chocolate agar plates were resuspended in MHB and the turbidity of the suspension was adjusted, as described above, to achieve the standardized microbial inoculum of approximately 5 × 10^5 CFU/mL. A two-fold serial dilution of the peptides (11 μL in sterile ultrapure water) was then prepared in wells 1–10 of a 96-well sterile polypropylene plate to obtain a dilution series corresponding to 10 times the required testing concentrations (2,560, 1,280, 640, 320, 160, 80, 40, 20, 10, 5 μg/mL). The bacterial suspension (100 μL) was dispensed into the wells containing the peptides. A negative growth/sterility control (well 12) contained bacterial growth media (100 μL) and the peptide solvent (11 μL of ultrapure sterile water). A positive growth control (well 11) contained the standardized number of bacterial cells (100 μL of ∼ 5.0 × 10^5 CFU/mL) and peptide solvent (11 μL of ultrapure sterile water). The 96-well plate was then incubated at 37°C in an atmosphere of 5% CO2 for 3 h to allow for peptide binding and antimicrobial activity. After the incubation period, an aliquot (20 μL) from wells 1–12 was removed and spotted onto the surface of a GC chocolate agar plate. N. gonorrhoeae spotted plates and TVC plates were incubated at 37°C in an atmosphere of 5% CO2 for 18–24 h. […] To determine the bactericidal activity of peptides, total viable counts (TVCs) were also prepared on GC chocolate agar plates for the 3 h-incubated peptide/bacteria mixtures. These counts were compared with TVCs from the corresponding positive growth wells to give the percentage of bacteria killed by each of the peptides following the 3-h incubation.

[3] = test system: S. enterica SL1344; type: cell-based, Salmonella enterica subsp. enterica serovar Typhimurium; conditions: range over 3–9 independent experiments
Protocol: as §1
(§3) Bacterial suspensions were prepared by transferring bacterial colonies into MHB and resuspending using a vortex mixer to ensure complete suspension of any bacterial aggregates. Turbidity of the colony suspensions was adjusted spectrophotometrically to the required optical densities to achieve a turbidity equivalent to that of a 0.5 McFarland standard (1–2 × 10^8 CFU/mL) followed by dilution in MHB to achieve the standardized microbial inoculum of approximately 5 × 10^5 CFU/mL. Total viable counts (TVC) were routinely performed on all inoculum suspensions to ensure correct bacterial cell densities. […] Plates were incubated at 37°C for 16–24 h and MICs were determined using the unaided eye to identify the lowest concentration of AMP that inhibited visible growth of the tested bacterial species. […] MBCs were determined by plating the entire content of the wells containing the peptide/bacteria mixture representing the MIC and the entire contents of the preceding wells containing two-fold and four-fold more concentrated AMP dilutions onto nonselective agar plates.

[4] = test system: M. smegmatis MC^2155; type: cell-based, Mycobacterium smegmatis; conditions: range over 3–9 independent experiments
Protocol: as §1, §2

[5] = test system: P. aeruginosa ATCC 10148; type: cell-based, Pseudomonas aeruginosa; conditions: range over 3–9 independent experiments
Protocol: as §1, §2

[6] = test system: S. aureus ATCC 6538P; type: cell-based, Staphylococcus aureus; conditions: range over 3–9 independent experiments
Protocol: as §1, §3

[7] = test system: E. coli ATCC 9723H; type: cell-based; conditions: range over 3–9 independent experiments
Protocol: as §1, §2

[8] = wells at MIC, two-fold and four-fold higher plated on nonselective agar, 24 h 37°C
[9] = broth microdilution in MHB, ~5 × 10^5 CFU/mL, peptide 256–0.5 μg/mL two-fold dilutions, 37°C 16–24 h, visible growth by unaided eye

CC[C@H](C)[C@H](NC(=O)[C@H](CCCCN)NC(=O)[C@H](CCC(=O)O)NC(=O)[C@H](CCCCN)NC(=O)[C@H](CO)NC(=O)[C@H](CCCCN)NC(=O)[C@H](CCCNC(=N)N)NC(=O)[C@H](Cc1ccccc1)NC(=O)[C@H](Cc1ccccc1)NC(=O)[C@H](CC(=O)O)NC(=O)CNC(=O)[C@H](CC(C)C)NC(=O)[C@@H](N)CC(C)C)C(=O)NCC(=O)N[C@@H](CCCCN)C(=O)N[C@@H](CCC(=O)O)C(=O)N[C@@H](Cc1ccccc1)C(=O)N[C@@H](CCCCN)C(=O)N[C@@H](CCCNC(=N)N)C(=O)N[C@H](C(=O)N[C@H](C(=O)N[C@@H](CCC(N)=O)C(=O)N[C@@H](CCCNC(=N)N)C(=O)N[C@H](C(=O)N[C@@H](CCCCN)C(=O)N[C@@H](CC(=O)O)C(=O)N[C@@H](Cc1ccccc1)C(=O)N[C@@H](CC(C)C)C(=O)N[C@@H](CCCNC(=N)N)C(=O)N[C@@H](CC(N)=O)C(=O)N[C@@H](CC(C)C)C(=O)N[C@H](C(=O)N1CCC[C@H]1C(=O)N[C@@H](CCCNC(=N)N)C(=O)N[C@H](C(=O)N[C@@H](CCC(=O)O)C(=O)N[C@@H](CO)C(=O)O)[C@@H](C)O)C(C)C)[C@@H](C)CC)C(C)C)[C@@H](C)CC [LL-37]
MIC ([1]; broth microdilution, cultured in MHB + 5% lysed horse blood, 5% carbon dioxide, ~5 × 10^5 CFU/mL, peptide 256–0.5 μg/mL, 37°C 16–24 h, visible growth): 28.5 to 57.0 µM | MBC [1, 8]: 28.5 to 57.0 µM | N. gonorrhoeae killing (%) ([2]; peptide 32 μg/mL): 100% | N. gonorrhoeae killing (%) ([2]; peptide 64 μg/mL): 100% | N. gonorrhoeae killing (%) ([2]; peptide 128 μg/mL): 100% | N. gonorrhoeae killing (%) ([2]; peptide 256 μg/mL): 100% | MIC [3, 9]: 1.8 to 28.5 µM | MBC [3, 8]: 1.8 to 28.5 µM | MIC [4, 9]: 0.45 to 1.8 µM | MBC [4, 8]: 0.45 to 1.8 µM | MIC [5, 9]: 3.6 to 14.2 µM | MBC [5, 8]: 3.6 to 14.2 µM | MIC ([6]; penicillin resistant strain, broth microdilution in MHB, ~5 × 10^5 CFU/mL, peptide 256–0.5 μg/mL two-fold dilutions, 37°C 16–24 h, visible growth by unaided eye): 7.1 to 28.5 µM | MBC [6, 8]: 7.1 to 57.0 µM | MIC [7, 9]: 1.8 to 7.1 µM | MBC [7, 8]: 1.8 to 7.1 µM
